According to article PMC10424716, “Discovery selective acetylcholinesterase inhibitors to control Tetranychus urticae (Acari: Tetranychidae)” (Journal of Insect Science, 2023):
Where two headings read alike, the source gives them in different places.

Target: T1, T. urticae AChE (TuAChE) (Tetranychus cinnabarinus, UniProt M9T420)
T1 construct: gene ace1; methods also mention mite extracts
T1 sequence (M9T420 1-687): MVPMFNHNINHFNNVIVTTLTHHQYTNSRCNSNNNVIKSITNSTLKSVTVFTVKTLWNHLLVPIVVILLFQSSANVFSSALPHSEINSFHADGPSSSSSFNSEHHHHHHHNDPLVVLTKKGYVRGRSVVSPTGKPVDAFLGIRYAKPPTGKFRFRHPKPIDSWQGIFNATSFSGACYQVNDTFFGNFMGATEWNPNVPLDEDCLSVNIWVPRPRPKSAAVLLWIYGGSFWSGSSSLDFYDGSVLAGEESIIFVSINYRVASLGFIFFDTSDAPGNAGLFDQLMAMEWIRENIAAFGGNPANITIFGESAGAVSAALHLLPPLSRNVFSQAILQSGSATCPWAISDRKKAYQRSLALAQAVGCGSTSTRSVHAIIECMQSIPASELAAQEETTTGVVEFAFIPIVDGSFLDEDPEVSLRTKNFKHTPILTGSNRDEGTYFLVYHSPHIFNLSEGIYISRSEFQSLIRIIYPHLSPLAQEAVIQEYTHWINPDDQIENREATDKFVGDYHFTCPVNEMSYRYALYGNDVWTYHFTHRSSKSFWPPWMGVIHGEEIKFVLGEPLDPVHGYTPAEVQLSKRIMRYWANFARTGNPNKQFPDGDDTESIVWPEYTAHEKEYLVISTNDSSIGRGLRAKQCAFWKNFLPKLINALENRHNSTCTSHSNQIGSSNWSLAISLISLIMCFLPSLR
Test: modified Ellman assay, […] nm
Format: biochemical

Compound	IC50 (read-out: IC50(mM) / TuAChE) [mM]	IC50 [mM]
O=C(c1ccc2occc2c1)N1CCC(OCc2ccccc2)CC1 [compound 8, 1-(1-benzofuran-5-ylcarbonyl)-4-(benzyloxy) piperidine]	1.51	–
CNC(=O)Oc1ccc2c(c1)[C@]1(C)CCN(C)[C@@H]1N2C [eserine]	–	3.81
